In general, Cmax refers to the peak of the concentration-time curve. Broadly, the Tmax is the time from dosing to the highest level. The term AUC(0-t) denotes exposure summed from dosing to a finite time, without extrapolation to infinity.

The nature of this data set: Pharmacokinetics test in beagle dogs (capsule by gavage, plasma LC/MS/MS). The format is in vivo. The procedure: The LC/MS/MS system used in the analysis consists of an Agilent 1200 Series vacuum degasser, binary pump, well-plate autosampler, thermostated column compartment, the Agilent G6430 Triple Quadrupole Mass Spectrometer with an electrosprayionization (ESI) source. Quantitative analysis was carried out using MRM mode. The parameters for MRM transitions are in the Table A.
An Agilent XDB-C18, 2.1×30 mm, 3.5 μM column was used for the analysis. 5 μL of the samples were injected. Analysis condition: The mobile phase was 0.1% formic acid in water (A) and 0.1% formic acid in methanol (B). The flow rate was 0.4 mL/min. And the gradient of Mobile phase was in the Table B.
An ESI source was used on the LC/MS/MS spectrometer. The analysis was done in positive ion mode as appropriate and the MRM transition for each analyte was optimized using standard solution. A Capcell MP-C18 100×4.6 mm I.D., […] column (Phenomenex, Torrance, Calif., USA) was used during the analysis. The mobile phase was 5 mM ammonia acetate, 0.1% MeOH in water (A): 5 mM ammonia acetate, 0.1% MeOH in acetonitrile (B) (70/30, v/v). The flow rate was 0.6 mL/min. Column was maintained at ambient temperature. 20 μL of the samples were injected.
The blood samples (0.3 mL) were drawn at 0.25, 0.5, 1.0, 2.0, 3.0, 4.0, 6.0, 8.0, 12 and 24 hour time points or 0.083, 0.25, 0.5, 1.0, 2.0, 4.0, 6.0, 8.0 and 24 hour time points and centrifuged at 3,000 or 4000 rpm for 2 to 10 min. The plasma solutions were collected, and analyzed by LC/MS/MS as described above. The pharmacokinetic parameters were calculated according to non-compartment model using WinNonlin procedure.

Setting [1] is: capsule by gavage, dose 2.5 mg/kg, plasma.

Counter-ions that a name gives are not always drawn. Like-named read-outs stand apart in the source and are kept apart here.

With `COc1ncc(-c2ccn3ncc(C#N)c3c2)cc1NS(=O)(=O)c1ccc(F)cc1F` [crystalline form A of mono-sodium salt, N-(5-(3-cyanopyrazolo[1,5-α]pyridin-5-yl)-2-methoxypyridin-3-yl)-2,4-difluorobenzenesulfonamide], under setting [1], the AUClast was found to be 8730 ng·h/mL, the Cmax was found to be 2820 ng/mL and the Tmax was 2.5 h.

Take `COc1ncc(-c2ccn3ncc(C#N)c3c2)cc1NS(=O)(=O)c1ccc(F)cc1F` [crystalline form A of mono-choline salt, N-(5-(3-cyanopyrazolo[1,5-α]pyridin-5-yl)-2-methoxypyridin-3-yl)-2,4-difluorobenzenesulfonamide]: under setting [1], the AUClast is 9130 ng·h/mL, the Cmax worked out at 3220 ng/mL and the Tmax was 1.08 h.

Turning to `COc1ncc(-c2ccn3ncc(C#N)c3c2)cc1NS(=O)(=O)c1ccc(F)cc1F` [crystalline form C of mono-sodium salt, N-(5-(3-cyanopyrazolo[1,5-α]pyridin-5-yl)-2-methoxypyridin-3-yl)-2,4-difluorobenzenesulfonamide], under setting [1], the AUClast was 5700 ng·h/mL, the Cmax was found to be 1410 ng/mL and the Tmax came to 2.33 h.

As for `COc1ncc(-c2ccn3ncc(C#N)c3c2)cc1NS(=O)(=O)c1ccc(F)cc1F` [amorphous form of mono-sodium salt, N-(5-(3-cyanopyrazolo[1,5-α]pyridin-5-yl)-2-methoxypyridin-3-yl)-2,4-difluorobenzenesulfonamide], under setting [1], the AUClast stood at 7290 ng·h/mL, the Cmax was determined as 2180 ng/mL and the Tmax was 1.33 h.

`COc1ncc(-c2ccn3ncc(C#N)c3c2)cc1NS(=O)(=O)c1ccc(F)cc1F` [crystalline form B of mono-sodium salt, N-(5-(3-cyanopyrazolo[1,5-α]pyridin-5-yl)-2-methoxypyridin-3-yl)-2,4-difluorobenzenesulfonamide]: under setting [1], the AUClast came to 9370 ng·h/mL, the Cmax was found to be 4530 ng/mL and the Tmax came to 0.583 h.

Compound `COc1ncc(-c2ccn3ncc(C#N)c3c2)cc1NS(=O)(=O)c1ccc(F)cc1F` [Compound of formula (I), N-(5-(3-cyanopyrazolo[1,5-α]pyridin-5-yl)-2-methoxypyridin-3-yl)-2,4-difluorobenzenesulfonamide] came in with an AUC(0-t) (dog, po, capsule by gavage, dose 2.5 mg/kg, plasma) of 1550 ng·h/mL. Also, where the note is “dog, po, capsule by gavage, dose 2.5 mg/kg, plasma, read-out: Cmax”, the Cmax was determined as 482 ng/mL. Also, the Tmax (dog, po, capsule by gavage, dose 2.5 mg/kg, plasma, read-out: Tmax) is 1.67 h.

Turning to `COc1ncc(-c2ccn3ncc(C#N)c3c2)cc1NS(=O)(=O)c1ccc(F)cc1F` [N-(5-(3-cyanopyrazolo[1,5-α]pyridin-5-yl)-2-methoxypyridin-3-yl)-2,4-difluorobenzenesulfonamide], the “exposure and bioavailability in vivo” value (Cmax and AUClast much larger than those of compound of formula (I)) was “good exposure and bioavailability”. Besides, under setting [1], the AUClast turned out to be 8420 ng·h/mL, the maximum concentration (Cmax) amounted to 3050 ng/mL and the Tmax is on record as 0.667 h.

Turning to `COc1ncc(-c2ccn3ncc(C#N)c3c2)cc1NS(=O)(=O)c1ccc(F)cc1F` [crystalline form A of mono-lithium salt, N-(5-(3-cyanopyrazolo[1,5-α]pyridin-5-yl)-2-methoxypyridin-3-yl)-2,4-difluorobenzenesulfonamide], under setting [1], the AUClast amounted to 4290 ng·h/mL, the Cmax worked out at 1640 ng/mL and the Tmax stood at 1.5 h.

The record behind these values is patent US11179376B2, “Salts of pyrazolo[1,5-a]pyridine derivative and use thereof” (SUNSHINE LAKE PHARMA CO., LTD., priority 2017, dated 2021).
